Data from patent US20100204265A1 (priority 2009, published 2010).

System: ET (Huh-lucubineo-ET) cell line harboring I389luc-ubi-neo/NS3-3′/ET HCV replicon
Test: Replicon assay (HCV replicon, luciferase readout)
Assay type: cell-based
Conditions: Hepatitis C virus
How it was run: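 Compounds at 10-point 2-fold dilutions (overall 0.1 nM to […], 0.5% DMSO) were applied to ET cells carrying a luciferase-neo HCV replicon, seeded a day earlier. After 48-72 hours, luciferase-based % inhibition was fitted with a Hill equation for EC50, and parallel WST-1 readings gave TC50.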

Q: `N#CC1(c2ncccc2F)CCN(C(=O)c2nc3c(C(F)(F)F)cc(-c4ccoc4)cn3c2Cl)CC1` [Compound 220, 1′-(3-Chloro-6-furan-3-yl-8-trifluoromethyl-imidazo[1,2-a]pyridine-2-carbonyl)-3-fluoro-2′,3′,5′,6′-tetrahydro-1′H-[2,4′]bipyridinyl-4′-carbonitrile] was tested. Which EC50 did it give?
A: 0.777 µM

Q: For `N#CC1(c2cccs2)CCN(C(=O)c2nc3c(C(F)(F)F)cc(-c4ccoc4)cn3c2Cl)CC1` [Compound 221, 1-(3-Chloro-6-furan-3-yl-8-trifluoromethyl-imidazo[1,2-a]pyridine-2-carbonyl)-4-thiophen-2-yl-piperidine-4-carbonitrile], which EC50 is on record?
A: 0.0455 µM

Q: `O=C(c1nc2c(C(F)(F)F)cc(-c3ccoc3)cn2c1Cl)N1CCC(O)(c2ncccc2F)CC1` [Compound 222, (3-Chloro-6-furan-3-yl-8-trifluoromethyl-imidazo[1,2-a]pyridin-2-yl)-(3-fluoro-4′-hydroxy-3′,4′,5′,6′-tetrahydro-2′H-[2,4′]bipyridinyl-1′-yl)-methanone] was tested. Which EC50 did it give?
A: 0.624 µM

Q: How did the EC50 turn out when `O=C(c1nc2c(C(F)(F)F)cc(-c3ccoc3)cn2c1Cl)N1CCC(F)(c2ncccc2F)CC1` [Compound 223, (3-Chloro-6-furan-3-yl-8-trifluoromethyl-imidazo[1,2-a]pyridin-2-yl)-(3,4′-difluoro-3′,4′,5′,6′-tetrahydro-2′H-[2,4′]bipyridinyl-1′-yl)-methanone] was run?
A: 0.657 µM

Q: How did the EC50 turn out when `O=C(c1nc2c(C(F)(F)F)cc(-c3ccoc3)cn2c1Cl)N1CCC(O)(c2nccs2)CC1` [Compound 224, (3-Chloro-6-furan-3-yl-8-trifluoromethyl-imidazo[1,2-a]pyridin-2-yl)-(4-hydroxy-4-thiazol-2-yl-piperidin-1-yl)-methanone] was run?
A: 3.5 µM

Q: Which EC50 does the source give for `CC(C)CCC1CCN(C(=O)c2nc3c(C(F)(F)F)cc(-c4ccoc4)cn3c2Cl)CC1` [Compound 225, (3-Chloro-6-furan-3-yl-8-trifluoromethyl-imidazo[1,2-a]pyridin-2-yl)-[4-(3-methyl-butyl)-piperidin-1-yl]-methanone] here?
A: 2.29 µM

Q: `O=C(NCc1cn2cc(-c3ccoc3)cc(C(F)(F)F)c2n1)C1CC1` [Compound 226, Cyclopropanecarboxylic acid (6-furan-3-yl-8-trifluoromethyl-imidazo[1,2-a]pyridin-2-ylmethyl)-amide] was tested. Which EC50 did it give?
A: > 50 µM

Q: How did the EC50 turn out when `O=S(=O)(NCc1cn2cc(-c3ccoc3)cc(C(F)(F)F)c2n1)C1CC1` [Compound 227, Cyclopropanesulfonic acid (6-furan-3-yl-8-trifluoromethyl-imidazo[1,2-a]pyridin-2-ylmethyl)-amide] was run?
A: > 50 µM

Q: `FC(F)(F)c1cc(-c2ccoc2)cn2cc(Cn3cnc(-c4ccccc4)c3)nc12` [Compound 228, 6-Furan-3-yl-2-(4-phenyl-imidazol-1-ylmethyl)-8-trifluoromethyl-imidazo[1,2-a]pyridine] was tested. Which EC50 did it give?
A: > 50 µM

Q: For `FC(F)(F)c1cc(-c2ccoc2)cn2cc(Cc3nc(-c4ccccc4)no3)nc12` [Compound 229, 6-Furan-3-yl-2-(3-phenyl-[1,2,4,]oxadiazol-5-ylmethyl)-8-trifluoromethyl-imidazo[1,2-a]pyridine], which EC50 is on record?
A: > 50 µM

Q: Which EC50 does the source give for `FC(F)(F)c1cc(-c2ccoc2)cn2cc(Cc3nc(Cc4ccccc4)no3)nc12` [Compound 230, 2-(3-Benzyl-[1,2,4]oxadiazol-5-ylmethyl)-6-furan-3-yl-8-trifluoromethyl-imidazo[1,2-a]pyridine] here?
A: > 50 µM

Q: Which EC50 does the source give for `FC(F)(F)c1cc(-c2ccoc2)cn2cc(Cc3nc(COc4ccccc4)no3)nc12` [Compound 231, 6-Furan-3-yl-2-(3-phenoxymethyl-[1,2,4]oxadiazol-5-ylmethyl)-8-trifluoromethyl-imidazo[1,2-a]pyridine] here?
A: > 50 µM

Q: How did the EC50 turn out when `CC(C)CS(=O)(=O)NCc1cn2cc(-c3ccoc3)cc(C(F)(F)F)c2n1` [Compound 232, 2-Methyl-propane-1-sulfonic acid (6-furan-3-yl-8-trifluoromethyl-imidazo[1,2-a]pyridin-2-ylmethyl)-amide] was run?
A: > 50 µM

Q: With `CCOCCOC1CCN(C(=O)c2nc3c(C(F)(F)F)cc(-c4cn[nH]c4)cn3c2Cl)C1` (centres unmarked) [Compound 233, [3-Chloro-6-(1H-pyrazol-4-yl)-8-trifluoromethyl-imidazo[1,2-a]pyridin-2-yl]-[3-(2-ethoxy-ethoxy)-pyrrohdin-1-yl]-methanone] as the molecule, how does the EC50 read?
A: > 50 µM

Q: With `O=C1c2ccccc2C(=O)N1Cc1cn2cc(-c3ccoc3)cc(C(F)(F)F)c2n1` [Compound 234, 2-(6-Furan-3-yl-8-trifluoromethyl-imidazo[1,2-a]pyridin-2-ylmethyl)-isoindole-1,3-dione] as the molecule, how does the EC50 read?
A: > 50 µM

Q: For `Clc1ccc(Cn2c(CN3CCCC3)nc3ccccc32)cc1` [Compound 235, 1-(4-Chloro-benzyl)-2-pyrrolidin-1-ylmethyl-1H-benzoimidazole], which EC50 is on record?
A: 40.2 µM

Q: For `N#CCc1cn2cc(-c3ccoc3)cc(C(F)(F)F)c2n1` [Compound 236, (6-Furan-3-yl-8-trifluoromethyl-imidazo[1,2-a]pyridin-2-yl)-acetonitrile], which EC50 is on record?
A: > 50 µM

Q: `NC(=O)C1CCCN1C(=O)c1nc2c(C(F)(F)F)cc(-c3ccoc3)cn2c1Cl` (centres unmarked) [Compound 237, 1-(3-Chloro-6-furan-3-yl-8-trifluoromethyl-imidazo[1,2-a]pyridine-2-carbonyl)-pyrrolidine-2-carboxylic acid amide] was tested. Which EC50 did it give?
A: > 50 µM

Q: How did the EC50 turn out when `CN(C)CC(=O)NCc1cn2cc(-c3ccoc3)cc(C(F)(F)F)c2n1` [Compound 239, 2-Dimethylamino-N-(6-furan-3-yl-8-trifluoromethyl-imidazo[1,2-a]pyridin-2-ylmethyl)-acetamide] was run?
A: > 50 µM

Q: Which EC50 does the source give for `CC(=O)NCC(=O)NCc1cn2cc(-c3ccoc3)cc(C(F)(F)F)c2n1` [Compound 240, 2-Acetylamino-N-(6-furan-3-yl-8-trifluoromethyl-imidazo[1,2-a]pyridin-2-ylmethyl)-acetamide] here?
A: > 50 µM

Q: How did the EC50 turn out when `CC(C)CC(N)C(=O)NCc1cn2cc(-c3ccoc3)cc(C(F)(F)F)c2n1` (centres unmarked) [Compound 241, 2-Amino-4-methyl-pentanoic acid (6-furan-3-yl-8-trifluoromethyl-imidazo[1,2-a]pyridin-2-ylmethyl)-amide] was run?
A: > 50 µM

Q: Which EC50 does the source give for `CC(C)(C)OC(=O)NCCc1cn2cc(-c3ccoc3)cc(C(F)(F)F)c2n1` [Compound 242, [2-(6-Furan-3-yl-8-trifluoromethyl-imidazo[1,2-a]pyridin-2-yl)-ethyl]-carbamic acid tert-butyl ester] here?
A: > 50 µM

Q: How did the EC50 turn out when `CC(=O)NC(CC(C)C)C(=O)NCc1cn2cc(-c3ccoc3)cc(C(F)(F)F)c2n1` (centres unmarked) [Compound 243, 2-Acetylamino-4-methyl-pentanoic acid (6-furan-3-yl-8-trifluoromethyl-imidazo[1,2-a]pyridin-2-ylmethyl)-amide] was run?
A: > 50 µM

Q: Which EC50 does the source give for `CC(=O)NC(C)C(=O)NCc1cn2cc(-c3ccoc3)cc(C(F)(F)F)c2n1` (centres unmarked) [Compound 244, 2-Acetylamino-N-(6-furan-3-yl-8-trifluoromethyl-imidazo[1,2-a]pyridin-2-ylmethyl)-propionamide] here?
A: > 50 µM

Q: Which EC50 does the source give for `CC(=O)NC(Cc1c[nH]c2ccccc12)C(=O)NCc1cn2cc(-c3ccoc3)cc(C(F)(F)F)c2n1` (centres unmarked) [Compound 245, 2-Acetylamino-N-(6-furan-3-yl-8-trifluoromethyl-imidazo[1,2-a]pyridin-2-ylmethyl)-3-(1H-indol-3-yl)-propionamide] here?
A: > 50 µM

Q: For `COC(=O)CNC(=O)c1cn2cc(-c3ccoc3)cc(C(F)(F)F)c2n1` [Compound 246, [(6-Furan-3-yl-8-trifluoromethyl-imidazo[1,2-a]pyridine-2-carbonyl)-amino]-acetic acid methyl ester], which EC50 is on record?
A: > 50 µM

Q: For `NC(=O)CNC(=O)c1cn2cc(-c3ccoc3)cc(C(F)(F)F)c2n1` [Compound 247, 6-Furan-3-yl-8-trifluoromethyl-imidazo[1,2-a]pyridine-2-carboxylic acid carbamoylmethyl-amide], which EC50 is on record?
A: > 50 µM

Q: How did the EC50 turn out when `CNC(=O)CNC(=O)c1cn2cc(-c3ccoc3)cc(C(F)(F)F)c2n1` [Compound 248, 6-Furan-3-yl-8-trifluoromethyl-imidazo[1,2-a]pyridine-2-carboxylic acid methylcarbamoylmethyl-amide] was run?
A: > 50 µM

Q: How did the EC50 turn out when `CN(C)C(=O)CNC(=O)c1cn2cc(-c3ccoc3)cc(C(F)(F)F)c2n1` [Compound 249, 6-Furan-3-yl-8-trifluoromethyl-imidazo[1,2-a]pyridine-2-carboxylic acid dimethylcarbamoylmethyl-amide] was run?
A: > 50 µM

Q: For `COC(=O)C(C)NC(=O)c1cn2cc(-c3ccoc3)cc(C(F)(F)F)c2n1` (centres unmarked) [Compound 250, 2-[(6-Furan-3-yl-8-trifluoromethyl-imidazo[1,2-a]pyridine-2-carbonyl)-amino]-propionic acid methyl ester], which EC50 is on record?
A: > 50 µM

Q: With `COC(=O)C(CCSC)NC(=O)c1cn2cc(-c3ccoc3)cc(C(F)(F)F)c2n1` (centres unmarked) [Compound 251, 2-[(6-Furan-3-yl-8-trifluoromethyl-imidazo[1,2-a]pyridine-2-carbonyl)-amino]-4-methylsulfanyl-butyric acid methyl ester] as the molecule, how does the EC50 read?
A: > 50 µM

Q: How did the EC50 turn out when `COC(=O)C(CO)NC(=O)c1cn2cc(-c3ccoc3)cc(C(F)(F)F)c2n1` (centres unmarked) [Compound 252, 2-[(6-Furan-3-yl-8-trifluoromethyl-imidazo[1,2-a]pyridine-2-carbonyl)-amino]-3-hydroxy-propionic acid methyl ester] was run?
A: > 50 µM

Q: `COC(=O)C(NC(=O)c1cn2cc(-c3ccoc3)cc(C(F)(F)F)c2n1)C(C)O` (centres unmarked) [Compound 253, 2-[(6-Furan-3-yl-8-trifluoromethyl-imidazo[1,2-a]pyridine-2-carbonyl)-amino]-3-hydroxy-butyric acid methyl ester] was tested. Which EC50 did it give?
A: > 50 µM

Q: With `COC(=O)C1CCCN1C(=O)c1cn2cc(-c3ccoc3)cc(C(F)(F)F)c2n1` (centres unmarked) [Compound 254, 1-(6-Furan-3-yl-8-trifluoromethyl-imidazo[1,2-a]pyridine-2-carbonyl)-pyrrolidine-2-carboxylic acid methyl ester] as the molecule, how does the EC50 read?
A: > 50 µM

Q: Which EC50 does the source give for `COC(=O)C(NC(=O)c1cn2cc(-c3ccoc3)cc(C(F)(F)F)c2n1)c1ccccc1` (centres unmarked) [Compound 255, [(6-Furan-3-yl-8-trifluoromethyl-imidazo[1,2-a]pyridine-2-carbonyl)-amino]-phenyl-acetic acid methyl ester] here?
A: > 50 µM
